Tested on: panel of 484 cancer cell lines
Assay: PRISM cancer cell line profiling, 5 days
Assay type: cell-based
Set-up: AUC: unit not given beside the values
Protocol: Cancer cell line profiling was performed using the Broad’s PRISM platform. Cell treatment and data analysis were performed as described in Yu et al[42]. Raw Luminex signal was converted to AUC values for each cell line as described. The resulting AUC profile for each compound was modeled against DepMap using the limma package in R[71]. Because hotspot mutation analysis was performed against DepMap, TP53 annotations in Fig. 6c,d are directly from DepMap.

Structure (SMILES): CN1CCN(CCC(=O)Nc2ccc3c(=O)n(CC4(O)CCN(C(=O)[C@H](CCCNC(=O)c5ccc6c(Cl)c7c(nc6c5)CCCC7)Cc5ccccc5)CC4)cnc3c2)CC1 [XL177B]
- AUC (MFE319_ENDOMETRIUM): 1.072
- AUC (MG63_BONE): 1.289
- AUC (MHHES1_BONE): 1.021
- AUC (MIAPACA2_PANCREAS): 1.024
- AUC (MKN1_STOMACH): 1.134
- AUC (MKN7_STOMACH): 0.9188
- AUC (MKN45_STOMACH): 0.937
- AUC (MKN74_STOMACH): 1.1384
- AUC (MON_SOFT_TISSUE): 0.868
- AUC (MPP89_PLEURA): 1.104
- AUC (MSTO211H_PLEURA): 1.149
- AUC (NB1_AUTONOMIC_GANGLIA): 0.9815
- AUC (NCIH23_LUNG): 1.159
- AUC (NCIH28_PLEURA): 1.1
- AUC (NCIH226_LUNG): 1
- AUC (NCIH292_LUNG): 1.194
- AUC (NCIH322_LUNG): 1.142
- AUC (NCIH358_LUNG): 0.8695
- AUC (NCIH446_LUNG): 1.097
- AUC (NCIH460_LUNG): 1.182
- AUC (NCIH520_LUNG): 1.115
- AUC (NCIH522_LUNG): 1.144
- AUC (NCIH596_LUNG): 1.0995
- AUC (NCIH650_LUNG): 0.9625
- AUC (NCIH661_LUNG): 1.097
- AUC (NCIH727_LUNG): 0.8802
- AUC (NCIH747_LARGE_INTESTINE): 1.192
- AUC (NCIH838_LUNG): 1.102
- AUC (NCIH841_LUNG): 0.9191
- AUC (NCIH1048_LUNG): 1.221
- AUC (NCIH1299_LUNG): 1.132
- AUC (NCIH1339_LUNG): 1.0827
- AUC (NCIH1355_LUNG): 1
- AUC (NCIH1373_LUNG): 1
- AUC (NCIH1435_LUNG): 1.103
- AUC (NCIH1437_LUNG): 1.1299
- AUC (NCIH1563_LUNG): 1.106
- AUC (NCIH1568_LUNG): 1.0425
- AUC (NCIH1573_LUNG): 1.2267
- AUC (NCIH1581_LUNG): 1
- AUC (NCIH1623_LUNG): 0.9367
- AUC (NCIH1648_LUNG): 0.9797
- AUC (NCIH1650_LUNG): 1
- AUC (NCIH1651_LUNG): 1.093
- AUC (NCIH1693_LUNG): 0.9899
- AUC (NCIH1703_LUNG): 1.014
- AUC (NCIH1792_LUNG): 1.039
- AUC (NCIH1793_LUNG): 1.204
- AUC (NCIH1838_LUNG): 1.05
- AUC (NCIH1915_LUNG): 1.114
- AUC (NCIH1944_LUNG): 1.069
- AUC (NCIH1975_LUNG): 0.971
- AUC (NCIH2009_LUNG): 1.115
- AUC (NCIH2023_LUNG): 1.241
- AUC (NCIH2030_LUNG): 1.104
- AUC (NCIH2052_PLEURA): 1.077
- AUC (NCIH2077_LUNG): 1.134
- AUC (NCIH2087_LUNG): 1.226
- AUC (NCIH2110_LUNG): 1.058
- AUC (NCIH2122_LUNG): 0.9408
- AUC (NCIH2126_LUNG): 1.236
- AUC (NCIH2170_LUNG): 1.101
- AUC (NCIH2172_LUNG): 1.092
- AUC (NCIH2228_LUNG): 1.118
- AUC (NCIH2347_LUNG): 1.188
- AUC (NCIH2444_LUNG): 1.192
- AUC (NCIH2452_PLEURA): 1.126
- AUC (NCIN87_STOMACH): 1.49
- AUC (NUGC3_STOMACH): 1.06
- AUC (NUGC4_STOMACH): 0.9885
- AUC (OAW42_OVARY): 1.241
- AUC (OC314_OVARY): 1.074
- AUC (OC316_OVARY): 1.04
- AUC (OE19_OESOPHAGUS): 1.175
- AUC (OE21_OESOPHAGUS): 1.031
- AUC (OE33_OESOPHAGUS): 1.151
- AUC (ONCODG1_OVARY): 0.9433
- AUC (ONS76_CENTRAL_NERVOUS_SYSTEM): 0.9415
- AUC (OSRC2_KIDNEY): 0.9859
- AUC (OUMS23_LARGE_INTESTINE): 0.9052
- AUC (OV56_OVARY): 1.208
- AUC (OVCAR8_OVARY): 0.9939
- AUC (OVISE_OVARY): 0.9359
- AUC (OVK18_OVARY): 1.044
- AUC (OVSAHO_OVARY): 1.01
- AUC (OVTOKO_OVARY): 1.081
- AUC (PANC1_PANCREAS): 0.9949
- AUC (PANC0203_PANCREAS): 0.9842
- AUC (PANC0327_PANCREAS): 1.28
- AUC (PANC0403_PANCREAS): 1.185
- AUC (PANC0813_PANCREAS): 1.0849
- AUC (PANC1005_PANCREAS): 1.231
- AUC (PATU8902_PANCREAS): 1.2352
- AUC (PATU8988S_PANCREAS): 1.1933
- AUC (PATU8988T_PANCREAS): 1.0752
- AUC (PC3_PROSTATE): 0.9113
- AUC (PC14_LUNG): 1.023
- AUC (PECAPJ15_UPPER_AERODIGESTIVE_TRACT): 0.9342
- AUC (PECAPJ41CLONED2_UPPER_AERODIGESTIVE_TRACT): 0.9621
- AUC (PECAPJ49_UPPER_AERODIGESTIVE_TRACT): 1.067
- AUC (PK1_PANCREAS): 1.024
- AUC (PK45H_PANCREAS): 1.109
- AUC (PK59_PANCREAS): 1.206
- AUC (PLCPRF5_LIVER): 1.091
- AUC (PSN1_PANCREAS): 1.221
- AUC (QGP1_PANCREAS): 0.967
- AUC (RCC10RGB_KIDNEY): 1.114
- AUC (RCM1_LARGE_INTESTINE): 1.243
- AUC (RD_SOFT_TISSUE): 1.111
- AUC (RERFLCAD1_LUNG): 1.059
- AUC (RERFLCAD2_LUNG): 1.0662
- AUC (RERFLCAI_LUNG): 0.9008
- AUC (RERFLCKJ_LUNG): 0.9276
- AUC (RERFLCMS_LUNG): 1.058
- AUC (RH30_SOFT_TISSUE): 1.104
- AUC (RKN_SOFT_TISSUE): 0.8189
- AUC (RKO_LARGE_INTESTINE): 0.9705
- AUC (RL952_ENDOMETRIUM): 1.086
- AUC (RMGI_OVARY): 1.148
- AUC (RMUGS_OVARY): 0.9927
- AUC (RT4_URINARY_TRACT): 1.661
